According to PubChem BioAssay AID330 (DTP/NCI, 2004):
Several values for one entry are separate records, joined by “and”; a condition that tells them apart may be missing. Equal values may be shown once. Inconclusive results and toxic doses are left out.

Test system: P388 leukemia ip, CD2F1 mice, survival T/C
Test: NCI In Vivo Anticancer Drug Screen. Data for tumor model P388 Leukemia (intraperitoneal) in CD2F1 (CDF1) mice
Settings: endpoint: median survival time, higher = longer survival
Procedure, shortened: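 Mice carrying the transplanted tumor received test compound or vehicle. Survival was recorded in each group, and the value is the treated-group measurement divided by that of the vehicle-treated control group.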

[1] = dose: 100.0 mg/kg/injection, schedule: Q04DX002 (ip), vehicle: saline with Tween-80
[2] = dose: 200.0 mg/kg/injection, schedule: Q04DX002 (ip), vehicle: saline with Tween-80
[3] = dose: 400.0 mg/kg/injection, schedule: Q04DX002 (ip), vehicle: saline with Tween-80
[4] = dose: 50.0 mg/kg/injection, schedule: Q01DX005 (ip), vehicle: saline with Tween-80
[5] = dose: 100.0 mg/kg/injection, schedule: Q01DX005 (ip), vehicle: saline with Tween-80
[6] = dose: 200.0 mg/kg/injection, schedule: Q01DX005 (ip), vehicle: saline with Tween-80
[7] = dose: 50.0 mg/kg/injection, schedule: Q01DX009 (ip), vehicle: saline with Tween-80
[8] = dose: 100.0 mg/kg/injection, schedule: Q01DX009 (ip), vehicle: saline with Tween-80
[9] = dose: 200.0 mg/kg/injection, schedule: Q01DX009 (ip), vehicle: saline with Tween-80
[10] = dose: 60.0 mg/kg/injection, schedule: Q01DX005 (ip), vehicle: Klucel (hydroxypropylcellulose) (HPC)
[11] = dose: 120.0 mg/kg/injection, schedule: Q01DX005 (ip), vehicle: Klucel (hydroxypropylcellulose) (HPC)
[12] = dose: 240.0 mg/kg/injection, schedule: Q01DX005 (ip), vehicle: Klucel (hydroxypropylcellulose) (HPC)
[13] = dose: 50.0 mg/kg/injection, schedule: Q01DX009 (ip), vehicle: Klucel (hydroxypropylcellulose) (HPC)
[14] = dose: 100.0 mg/kg/injection, schedule: Q01DX009 (ip), vehicle: Klucel (hydroxypropylcellulose) (HPC)
[15] = dose: 7.5 mg/kg/injection, schedule: Q01DX005 (ip), vehicle: saline with Tween-80
[16] = dose: 15.0 mg/kg/injection, schedule: Q01DX005 (ip), vehicle: saline with Tween-80
[17] = dose: 200.0 mg/kg/injection, schedule: Q01DX009 (ip), vehicle: Klucel (hydroxypropylcellulose) (HPC)
[18] = dose: 200.0 mg/kg/injection, schedule: Q04DX003 (ip), vehicle: Klucel (hydroxypropylcellulose) (HPC)
[19] = dose: 50.0 mg/kg/injection, schedule: Q01DX005 (ip), vehicle: Klucel (hydroxypropylcellulose) (HPC)
[20] = dose: 100.0 mg/kg/injection, schedule: Q01DX005 (ip), vehicle: Klucel (hydroxypropylcellulose) (HPC)
[21] = dose: 200.0 mg/kg/injection, schedule: Q01DX005 (ip), vehicle: Klucel (hydroxypropylcellulose) (HPC)
[22] = dose: 50.0 mg/kg/injection, schedule: Q01DX009 (ip), vehicle: suspension in saline
[23] = dose: 100.0 mg/kg/injection, schedule: Q01DX009 (ip), vehicle: suspension in saline
[24] = dose: 200.0 mg/kg/injection, schedule: Q01DX009 (ip), vehicle: suspension in saline
[25] = dose: 50.0 mg/kg/injection, schedule: Q01DX009 (ip), vehicle: saline
[26] = dose: 100.0 mg/kg/injection, schedule: Q01DX009 (ip), vehicle: saline
[27] = dose: 200.0 mg/kg/injection, schedule: Q01DX009 (ip), vehicle: saline

## CC1(C)OC2CC(=O)OCC23C1CC(O)C1(C)C3CCC2(C)C(c3ccoc3)OC(=O)C3OC321 (configuration not stated)
dose: 0.75 mg/kg/injection, schedule: Q01DX009 (ip), vehicle: saline + alcohol
  T/C: 99 % of control
dose: 1.5 mg/kg/injection, schedule: Q01DX009 (ip), vehicle: saline + alcohol
  T/C: 99 % of control
dose: 3.0 mg/kg/injection, schedule: Q01DX009 (ip), vehicle: saline + alcohol
  T/C: 97 % of control
dose: 6.0 mg/kg/injection, schedule: Q01DX009 (ip), vehicle: saline + alcohol
  T/C: 97 % of control
[1]
  T/C: 103 % of control and 98 % of control
[2]
  T/C: 101 % of control and 100 % of control
[3]
  T/C: 91 % of control and 92 % of control

## CSc1nc(SC)c2cn(Cc3ccccc3)nc2n1
[4]
  T/C: 105 % of control
[5]
  T/C: 108 % of control
[6]
  T/C: 102 % of control

## CC12CCC(=O)C=C1C=CC1C2CCC2(C)C1CCC21CCC(=O)O1 (configuration not stated)
[7]
  T/C: 94 % of control
[8]
  T/C: 91 % of control
[9]
  T/C: 97 % of control

## O=C(Nc1c(Cl)cccc1Cl)OCc1ccco1
[10]
  T/C: 105 % of control
[11]
  T/C: 102 % of control
[12]
  T/C: 100 % of control

## COc1cc2c(cc1OC)-c1cc(C)c3cc(OC)c(OC)cc3[n+]1CC2
dose: 50.0 mg/kg/injection, schedule: Q01DX009 (ip), vehicle: water
  T/C: 111 % of control
dose: 100.0 mg/kg/injection, schedule: Q01DX009 (ip), vehicle: water
  T/C: 110 % of control
dose: 200.0 mg/kg/injection, schedule: Q01DX009 (ip), vehicle: water
  T/C: 117 % of control

## CN(C(=O)Nc1cccc2c(NC(=O)N(C)C3CCCCC3)cccc12)C1CCCCC1
dose: 60.0 mg/kg/injection, schedule: Q01DX005 (ip), vehicle: saline with Tween-80
  T/C: 93 % of control
dose: 120.0 mg/kg/injection, schedule: Q01DX005 (ip), vehicle: saline with Tween-80
  T/C: 87 % of control
dose: 240.0 mg/kg/injection, schedule: Q01DX005 (ip), vehicle: saline with Tween-80
  T/C: 90 % of control

## O=S(=O)(O)OOS(=O)(=O)O
[13]
  T/C: 100 % of control
[14]
  T/C: 87 % of control

## O=c1nc2sccn2c2ncccc12
dose: 3.75 mg/kg/injection, schedule: Q01DX005 (ip), vehicle: saline with Tween-80
  T/C: 96 % of control
[15]
  T/C: 94 % of control
[16]
  T/C: 88 % of control

## C1CNC(SC2(SC3=NCCN3)SC3(NCCN3)S2)=N1
dose: 50.75 mg/kg/injection, schedule: Q01DX001 (ip), vehicle: saline
  T/C: 104 % of control
dose: 101.5 mg/kg/injection, schedule: Q01DX001 (ip), vehicle: saline
  T/C: 99 % of control
dose: 203.0 mg/kg/injection, schedule: Q01DX001 (ip), vehicle: saline
  T/C: 101 % of control

## C=CCN1C(=O)CSC1=S
[14]
  T/C: 100 % of control
[17]
  T/C: 108 % of control
dose: 400.0 mg/kg/injection, schedule: Q01DX009 (ip), vehicle: Klucel (hydroxypropylcellulose) (HPC)
  T/C: 110 % of control

## CC1=C2CCC(O)C2(C)CCC(=O)C1 (configuration not stated)
dose: 100.0 mg/kg/injection, schedule: Q04DX003 (ip), vehicle: Klucel (hydroxypropylcellulose) (HPC)
  T/C: 105 % of control
[18]
  T/C: 99 % of control

## CC(C)(C)OOC(=O)c1ccccc1O
dose: 100.0 mg/kg/injection, schedule: Q04DX003 (ip), vehicle: saline sonified
  T/C: 100 % of control
dose: 200.0 mg/kg/injection, schedule: Q04DX003 (ip), vehicle: saline sonified
  T/C: 100 % of control

## COc1ccccc1/C=N/N1C(=O)C2C3C=CC(O3)C2C1=O (configuration not stated)
[4]
  T/C: 104 % of control
[5]
  T/C: 89 % of control
[6]
  T/C: 93 % of control

## CC(C)C(CC[C@@H](C)C1CC[C@@]2(C)C3=C(CC[C@]12C)[C@@]1(C)CC[C@H](O)C(C)(C)[C@@H]1CC3)S[As](C)C (some centres not stated)
[19]
  T/C: 92 % of control
[20]
  T/C: 95 % of control
[21]
  T/C: 97 % of control

## Cc1cc(Cl)c2cc3c(cc2n1)CCCC3
[10]
  T/C: 102 % of control
[11]
  T/C: 109 % of control

## Cn1c2c(c(=O)c3cc(O)ccc31)CC(O)C(C)(C)O2 (configuration not stated)
[19]
  T/C: 102 % of control
[20]
  T/C: 94 % of control
[21]
  T/C: 86 % of control

## CC(=O)Nc1ccc(S(=O)(=O)Oc2noc3ccc(S(N)(=O)=O)cc23)cc1
dose: 100.0 mg/kg/injection, schedule: Q04DX002 (ip), vehicle: Klucel (hydroxypropylcellulose) (HPC)
  T/C: 102 % of control
dose: 200.0 mg/kg/injection, schedule: Q04DX002 (ip), vehicle: Klucel (hydroxypropylcellulose) (HPC)
  T/C: 107 % of control
dose: 400.0 mg/kg/injection, schedule: Q04DX002 (ip), vehicle: Klucel (hydroxypropylcellulose) (HPC)
  T/C: 109 % of control

## CCN(CC)C1=C2/C=CC3=C2\C(=C/C=C\C=C/1C)CC3=O
[10]
  T/C: 95 % of control
[11]
  T/C: 98 % of control
[12]
  T/C: 96 % of control

## NC1(N)ON(c2ccc(C=O)cc2)C(c2ccc([N+](=O)[O-])cc2)S1 (configuration not stated)
[19]
  T/C: 89 % of control
[20]
  T/C: 95 % of control
[21]
  T/C: 89 % of control

## CSc1cccc(NC(=O)OC2CCCCCCCCCCC2)c1
[7]
  T/C: 89 % of control
[8]
  T/C: 89 % of control
[9]
  T/C: 92 % of control

## O=NN(Cc1ccc(Cl)cc1)C(C(=O)O)c1ccccc1 (configuration not stated)
dose: 60.0 mg/kg/injection, schedule: Q01DX005 (ip), vehicle: Klucel + Tween-80
  T/C: 103 % of control
dose: 120.0 mg/kg/injection, schedule: Q01DX005 (ip), vehicle: Klucel + Tween-80
  T/C: 103 % of control

## CC(=O)OCC1OC(Nc2[nH]c(=O)[nH]c(=O)c2C(=O)CCl)C(OC(C)=O)C(OC(C)=O)C1OC(C)=O (configuration not stated)
[1]
  T/C: 121 % of control
[2]
  T/C: 111 % of control
[3]
  T/C: 99 % of control

## COc1cccc2c1C(=O)c1c(O)c3c(c(O)c1C2=O)CC(O)(C(=O)CO)CC3OC1CC(N/C(C)=C/C(C)=O)C(O)C(C)O1 (configuration not stated)
dose: 10.0 mg/kg/injection, schedule: Q04DX003 (ip), vehicle: saline with Tween-80
  T/C: 160 % of control

## CSC(=S)N/N=C(\C)c1ccc[nH]1
[19]
  T/C: 99 % of control
[20]
  T/C: 97 % of control

## c1cc2cc(-c3ccc4cc(-c5ccc6oc(C7=NCCN7)cc6c5)[nH]c4c3)[nH]c2cc1C1=NCCN1
[19]
  T/C: 156 % of control
[20]
  T/C: 114 % of control
[21]
  T/C: 91 % of control

## Cc1ccc(NC(=S)SCc2ccc(Cl)c(Cl)c2)cc1C
[13]
  T/C: 116 % of control
[22]
  T/C: 96 % of control
[14]
  T/C: 113 % of control
[23]
  T/C: 100 % of control
[17]
  T/C: 109 % of control
[24]
  T/C: 101 % of control

## CCS/C(SC)=C(/c1ccccc1)[P+](c1ccccc1)(c1ccccc1)c1ccccc1
dose: 3.12 mg/kg/injection, schedule: Q01DX005 (ip), vehicle: Klucel (hydroxypropylcellulose) (HPC)
  T/C: 106 % of control
dose: 12.5 mg/kg/injection, schedule: Q01DX005 (ip), vehicle: Klucel (hydroxypropylcellulose) (HPC)
  T/C: 117 % of control

## CCOc1cc(=O)cc2n(-c3cc(OCC)c(OC(C)=O)c(OCC)c3)c3ccccc3nc1-2
[22]
  T/C: 99 % of control
[23]
  T/C: 100 % of control
[24]
  T/C: 99 % of control

## O=c1nc(-c2ccc3c(c2)OCO3)sc(=O)[nH]1
[7]
  T/C: 111 % of control
[8]
  T/C: 107 % of control
[9]
  T/C: 112 % of control

## O=C1c2ccccc2COC1c1ccccc1 (configuration not stated)
[25]
  T/C: 108 % of control
[26]
  T/C: 111 % of control
[27]
  T/C: 118 % of control

## CCOc1cc2c(cc1C(CC)c1ccc(OCc3ccccc3)cc1)OCO2 (configuration not stated)
[19]
  T/C: 92 % of control
[20]
  T/C: 87 % of control

## CN(C)N=Nc1cn[nH]c1C(N)=O
dose: 50.0 mg/kg/injection, schedule: Q04DX003 (ip), vehicle: Klucel (hydroxypropylcellulose) (HPC)
  T/C: 109 % of control
[18]
  T/C: 161 % of control and 163 % of control

## O=c1[nH]c(=S)ccn1C1OC(CO)C(O)C1O (configuration not stated)
[25]
  T/C: 97 % of control
[26]
  T/C: 101 % of control
[27]
  T/C: 93 % of control

## N#CC1N(C(=O)Oc2ccccc2)c2ccccc2N1C(=O)Oc1ccccc1
[15]
  T/C: 92 % of control
[16]
  T/C: 91 % of control
